Reference: paper PMC5078025, “Necrosis-inducing peptide has the beneficial effect on killing tumor cells through neuropilin (NRP-1) targeting” (Oncotarget, 2016)
Bridge positions count the residues as written; N and C are the ends. Ends that are not written are not given here. Peptide text beside a SMILES is read from it.

What was measured:
Serum AST and ALT assays = format: in vivo, mice
Protocol: To assay the activities of ALT and AST, mouse serum was prepared by centrifuging blood at 2500 × g for 15 minutes at 4°C. Enzyme activities were determined, according to the manufacturer's instructions. […]
the first injection of the peptides. […]
necrosis in tail vein upon injection.
“Slow” means not moving around in the cage.
“Normal” means normally moving around in the cage.
(§1) Abbreviation: NR; no regression, ND; not determined. […]
aminotransferase) in mice treated with TU17:MTD
Treatment Serum aminotransferase (karman units/ml)
White blood Hemoglobin Platelets Neutrophils Lymphocyts Monocytes
Treatments cells (g/dl) (×103 cell/μl) (%) (%) (%)

BALB/c mice = assay: Toxicity and movement activity after i.v. injection; details: for Movement Activities: BALB/c (around 20 gm) mice, i.v. single dose 75 μl of 1 mM, within 30 minutes; for toxicity by mouse movements: BALB/c mice, i.v. single dose 75 μl of 1 mM per mouse, movements within 30 minutes, observed up to one week
Protocol: To design a MTD peptide anti-cancer drug, the MTD peptide was fused to various known tumor-homing motifs through its N-terminal or C-terminal region, and a linker was introduced between these two motifs to impart flexibility and minimize steric hindrance (Figure 1A, Supplementary Table S1). The MTD peptides fused with tumor-homing motifs (hereafter designated TU:MTDs) were synthesized as linear or cyclic entities using L-amino acids (Supplementary Table S1), and were evaluated for their killing activity using CT26 cells in vitro (Supplementary Figure S1). […] Thus, BALB/c mouse movements were also evaluated within 30 minutes of the intravenous injection of a single dose of 75 μl of 1 mM TU:MTDs per mouse. […] We also searched for a TU:MTD with a potent in vivo effect by observing tumor volumes in three BALB/c mice bearing CT26 adenocarcinoma that were injected with 100 μl of 1 mM TU:MTDs per day for 2 or 3 consecutive days (Figure 1B). […] The tumor-homing motif of TU17:MTD has a “RPARPAR” sequence containing the C-end rule (CendR) element that has known to bind to neuropilin-1 (NRP-1), although the “RPARPAR” sequence is located at the N-terminus of the MTD rather than at the C-terminus. […]
1 mM) were i.v. injected into BALB/c (around 20 gm) mice at a single dose. “Slow” means not moving around in the cage.
“Normal” means normally moving around in the cage. “Toxic” means necrosis in tail vein within 2 ~ 3 days after injection.
as §1

CT26 cells = assay: XTT cell viability / killing activity in CT26 cells; format: cell-based; details: CT26 cells, TU:MTDs 0 ~ 20 μM, 30 minutes, XTT
Protocol: Figure 1 Identification of TU17:MTD as a tumor targeting peptide (A) Schematic diagram of the fusion peptides consisting of the tumor-homing motif, linker, and mitochondrial targeting domain (MTD). (B) Tumors were generated over 2 weeks after s.c. injection of CT26 cells into the backs of BALB/c mice. When tumor volumes reached palpable size, the indicated TU:MTDs (100 μl of 1 mM TU:MTDs) or PBS were administrated i.v. twice or three times. […] Arrows indicate the points of peptide injection. P values < 0.02 (control group vs TU17:MTD at day 5, 6, 7, 8, and 9) (C) HCT116, HeLa, A549, MCF-7, PC3, and BJAB cells were treated with TU17:MTD (0 ~ 20 μM) for 30 minutes, and cell viability was monitored using XTT assays. *P < 0.05 (D) Primary splenocytes and macrophages were treated with TU17:MTD (0 ~ 20 μM) for 30 minutes, and cell viability was monitored by XTT assay. *P < 0.05 (E) CT26 cells were treated with R8:MTD, TU17:MTD, TU17-2:MTD or TU17:MTD^4A (0 ~ 40 μM) for 4 hours, and cell viability was monitored by XTT assay. Results in C to E are expressed as means ± SD (triplicates), and are representative of at least two independent experiments. P values are for experimental groups versus controls and were calculated using Dunnett's t-test. *P < 0.05.
Figure 5 Anti-NRP-1 antibody blocks TU17:MTD-induced necrosis (A) CT26 cells (2 × 10^4 cells/cm^2) were treated with TU17:MTD-FAM (500 nM) peptide or TU17^mut:MTD (500 nM) peptide. […] The viability was measured by using the XTT assay. *P < 0.05, **P < 0.01. […] The percentage of FAM-positive cells (%) were determined (n = over 200 cells). *P < 0.05, ***P < 0.001.
Cells were cultured in 96 well plates (2 × 10^5) overnight and treated with TU:MTDs. Cell viabilities were assessed using a XTT-based colorimetric assay kit, according to the manufacturer's instructions. […]
Supplementary FigureS1: Killing activity of TU:MTDs in CT26 cells. CT26 cells were treated with TU:MTDs (0 ~ 20 μM) for 30 minutes, and cell viability was monitored using XTT assays. […]

various tumor cells = details: four leucine residues of MTD replaced by alanine; cited from earlier work
Description: We reported a 10-residue long, pro-necrotic peptide derived from the mitochondrial targeting domain (MTD) located in the C-terminal region of Noxa, a BH-3 only protein of Bcl-2 family. The MTD region of Noxa is responsible not only for mitochondrial targeting of Noxa but also for mitochondrial fragmentation induced by Noxa. Two […]) in the region of MTD play a key role in mitochondrial fragmentation induced by Noxa. […] Therefore, we determined whether TU17:MTD could discriminate tumor and normal cells in vitro.

[1] = CCl4-treated mice, chemically-induced liver damage model

## ClC(Cl)(Cl)Cl [CCl4]
Serum AST and ALT assays; [1]
  Serum aminotransferase ALT: 558.8 ± 7.2 karman units/ml
  Serum aminotransferase AST: 42.8 ± 3.7 karman units/ml
Serum AST and ALT assays; mice
  serum levels of AST and ALT: substantially higher

## CC[C@H](C)[C@H](NC(=O)[C@H](CC(C)C)NC(=O)[C@H](CC(N)=O)NC(=O)[C@H](CC(C)C)NC(=O)[C@H](CC(C)C)NC(=O)[C@H](CCCCN)NC(=O)CNC(=O)CNC(=O)[C@H](CS)NC(=O)[C@H](CCCNC(=N)N)NC(=O)CNC(=O)[C@H](CC(N)=O)NC(=O)[C@@H](N)CS)C(=O)N[C@@H](CO)C(=O)N[C@@H](CCCCN)C(=O)N[C@@H](CC(C)C)C(=O)N[C@@H](Cc1ccccc1)C(=O)O [TU1:MTD] (H-CNGRCGGKLLNLISKLF-OH)
BALB/c mice
  Movement Activities: Slow
  toxicity by mouse movements: toxic

## CC[C@H](C)[C@H](NC(=O)[C@H](CC(C)C)NC(=O)[C@H](CC(N)=O)NC(=O)[C@H](CC(C)C)NC(=O)[C@H](CC(C)C)NC(=O)[C@H](CCCCN)NC(=O)CNC(=O)CNC(=O)[C@H](CS)NC(=O)CNC(=O)[C@H](CCCNC(=N)N)NC(=O)[C@@H](NC(=O)[C@H](CCCNC(=N)N)NC(=O)[C@H](CCCCN)NC(=O)[C@H](CC(N)=O)NC(=O)CNC(=O)[C@@H](N)CS)[C@@H](C)O)C(=O)N[C@@H](CO)C(=O)N[C@@H](CCCCN)C(=O)N[C@@H](CC(C)C)C(=O)N[C@@H](Cc1ccccc1)C(=O)O [TU3:MTD] (H-CGNKRTRGCGGKLLNLISKLF-OH)
BALB/c mice
  Movement Activities: Normal
  toxicity by mouse movements: no apparent toxicities

## CC[C@H](C)[C@H](NC(=O)[C@H](CC(C)C)NC(=O)[C@H](CC(N)=O)NC(=O)[C@H](CC(C)C)NC(=O)[C@H](CC(C)C)NC(=O)[C@H](CCCCN)NC(=O)[C@H](CS)NC(=O)[C@H](CC(=O)O)NC(=O)[C@@H]1CCCN1C(=O)CNC(=O)[C@H](CCCCN)NC(=O)[C@H](CC(=O)O)NC(=O)[C@H](CCCNC(=N)N)NC(=O)CNC(=O)[C@@H](N)CS)C(=O)N[C@@H](CO)C(=O)N[C@@H](CCCCN)C(=O)N[C@@H](CC(C)C)C(=O)N[C@@H](Cc1ccccc1)C(=O)O [TU6:MTD] (H-CGRDKGPDCKLLNLISKLF-OH)
BALB/c mice
  Movement Activities: Normal
  toxicity by mouse movements: no apparent toxicities

## CC[C@H](C)[C@H](NC(=O)[C@H](CC(C)C)NC(=O)[C@H](CC(N)=O)NC(=O)[C@H](CC(C)C)NC(=O)[C@H](CC(C)C)NC(=O)[C@@H](N)CCCCN)C(=O)N[C@@H](CO)C(=O)N[C@@H](CCCCN)C(=O)N[C@@H](CC(C)C)C(=O)N[C@@H](Cc1ccccc1)C(=O)N[C@@H](CS)C(=O)NCC(=O)N[C@@H](CCCNC(=N)N)C(=O)N[C@@H](CC(=O)O)C(=O)N[C@@H](CCCCN)C(=O)NCC(=O)N1CCC[C@H]1C(=O)N[C@@H](CC(=O)O)C(=O)N[C@@H](CS)C(=O)O [TU7:MTD] (H-KLLNLISKLFCGRDKGPDC-OH)
BALB/c mice
  toxicity by mouse movements: no apparent toxicities

## CC[C@H](C)[C@H](NC(=O)[C@H](CC(C)C)NC(=O)[C@H](CC(N)=O)NC(=O)[C@H](CC(C)C)NC(=O)[C@H](CC(C)C)NC(=O)[C@@H](N)CCCCN)C(=O)N[C@@H](CO)C(=O)N[C@@H](CCCCN)C(=O)N[C@@H](CC(C)C)C(=O)N[C@@H](Cc1ccccc1)C(=O)N[C@@H](CS)C(=O)NCC(=O)N[C@@H](CCCNC(=N)N)C(=O)N[C@@H](CC(=O)O)C(=O)N[C@@H](CCCCN)C(=O)N[C@@H](CCCNC(=N)N)C(=O)N[C@@H](CC(C)C)C(=O)N[C@@H](Cc1ccc(O)cc1)C(=O)N[C@@H](CC(=O)O)C(=O)N[C@@H](CS)C(=O)O [TU8:MTD] (H-KLLNLISKLFCGRDKRLYDC-OH)
BALB/c mice
  Movement Activities: Dead
  toxicity by mouse movements: highly toxic
CT26 cells
  cytotoxicity to CT26 cells in vitro: not cytotoxic

## CC[C@H](C)[C@H](NC(=O)[C@H](CC(C)C)NC(=O)[C@H](CC(N)=O)NC(=O)[C@H](CC(C)C)NC(=O)[C@H](CC(C)C)NC(=O)[C@H](CCCCN)NC(=O)[C@H](CS)NC(=O)[C@H](CC(=O)O)NC(=O)[C@@H]1CCCN1C(=O)CNC(=O)[C@H](CCCCN)NC(=O)[C@H](CC(=O)O)NC(=O)CNC(=O)[C@H](CCCNC(=N)N)NC(=O)[C@@H](N)CS)C(=O)N[C@@H](CO)C(=O)N[C@@H](CCCCN)C(=O)N[C@@H](CC(C)C)C(=O)N[C@@H](Cc1ccccc1)C(=O)O [TU9:MTD] (H-CRGDKGPDCKLLNLISKLF-OH)
BALB/c mice
  Movement Activities: Normal
  toxicity by mouse movements: no apparent toxicities

## CGKRKGGKLLNLISKLF [TU19:MTD]
BALB/c mice
  Movement Activities: Normal
  toxicity by mouse movements: no apparent toxicities

## CRGDKGGKLLNLISKLF [TU21:MTD]
BALB/c mice
  Movement Activities: Slow
  toxicity by mouse movements: toxic

## KLLNLISKLF [MTD]
Various tumor cells
  killing activity and mitochondrial targeting activity: abolishes the killing activity and mitochondrial targeting activity

## KLLNLISKLFCRGDKGPDC (disulfide 11-19 (inferred)) [TU10:MTD]
BALB/c mice
  Movement Activities: Slow
  toxicity by mouse movements: toxic

## KLLNLISKLFGGCGKRK [TU20:MTD]
BALB/c mice
  Movement Activities: Normal
  toxicity by mouse movements: no apparent toxicities

## KLLNLISKLFGGCRGDK [TU22:MTD]
BALB/c mice
  Movement Activities: Normal
  toxicity by mouse movements: no apparent toxicities

## KLLNLISKLFGGRLLRLLRLLR [TU16:MTD]
BALB/c mice
  Movement Activities: Normal
  toxicity by mouse movements: no apparent toxicities

## KLLNLISKLFGGRPARPAR [TU18:MTD]
BALB/c mice
  Movement Activities: Slow
  toxicity by mouse movements: toxic

## RLLRLLRLLRGGKLLNLISKLF [TU15:MTD]
BALB/c mice
  Movement Activities: Slow
  toxicity by mouse movements: toxic

## WDLAWMFRLPVGKLLNLISKLF [TU5:MTD]
BALB/c mice
  Movement Activities: Normal
  toxicity by mouse movements: no apparent toxicities

## WIFPWIQLKLLNLISKLF [TU4:MTD]
BALB/c mice
  Movement Activities: Slow
  toxicity by mouse movements: toxic
